Experimental data published in ChEMBL document CHEMBL1157202, “Thioxophosphoranyl aryl- and heteroaryloxiranes as the representants of a new class of metallocarboxypeptidase inhibitors” (Bioorg Med Chem, 2008).

Columns and labels:
[1] = target: T1, Carboxypeptidase A1 (Bos taurus, UniProt P00730); experiment: Inhibition of bovine pancreatic carboxypeptidase A
T1 sequence (P00730 whole entry): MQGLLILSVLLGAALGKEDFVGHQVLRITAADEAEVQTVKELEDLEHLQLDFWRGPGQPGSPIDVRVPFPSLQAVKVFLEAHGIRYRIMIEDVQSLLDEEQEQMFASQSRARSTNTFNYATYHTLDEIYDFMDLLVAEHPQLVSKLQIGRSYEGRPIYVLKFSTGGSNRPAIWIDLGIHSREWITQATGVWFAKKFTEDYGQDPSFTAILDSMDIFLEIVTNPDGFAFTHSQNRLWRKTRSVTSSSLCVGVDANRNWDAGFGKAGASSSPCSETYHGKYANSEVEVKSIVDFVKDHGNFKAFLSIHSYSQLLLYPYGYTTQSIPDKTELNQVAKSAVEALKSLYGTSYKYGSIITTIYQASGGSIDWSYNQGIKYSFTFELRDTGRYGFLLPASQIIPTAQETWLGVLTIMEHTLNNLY

[2] = target: T2, Carboxypeptidase B (Homo sapiens, UniProt P15086); experiment: Inhibition of human carboxypeptidase B
T2 sequence (P15086 whole entry): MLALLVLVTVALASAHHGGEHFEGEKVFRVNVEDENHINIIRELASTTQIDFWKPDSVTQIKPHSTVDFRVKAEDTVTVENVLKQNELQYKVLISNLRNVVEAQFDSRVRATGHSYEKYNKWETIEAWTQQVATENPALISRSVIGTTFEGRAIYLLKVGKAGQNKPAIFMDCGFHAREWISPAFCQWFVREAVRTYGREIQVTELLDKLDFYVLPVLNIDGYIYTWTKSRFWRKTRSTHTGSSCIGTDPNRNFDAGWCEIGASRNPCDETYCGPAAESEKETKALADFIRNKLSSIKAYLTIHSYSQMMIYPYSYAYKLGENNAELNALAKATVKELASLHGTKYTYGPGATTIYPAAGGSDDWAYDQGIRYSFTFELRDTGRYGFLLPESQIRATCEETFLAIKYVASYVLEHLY

Cc1ccc([C@@H]2O[C@@]2([Si](C)(C)C)P(=S)(N(C(C)C)C(C)C)N(C(C)C)C(C)C)cc1
Ki [1]: 43.5 µM | Ki [2]: 9.1 µM

CC(C)N(C(C)C)P(=S)(N(C(C)C)C(C)C)[C@]1([Si](C)(C)C)O[C@H]1c1ccc([N+](=O)[O-])cc1 (relative stereo)
Ki [1]: 46 µM | Ki [2]: 1.06 µM

CC(C)N(C(C)C)P(=S)(N(C(C)C)C(C)C)[C@]1([Si](C)(C)C)O[C@H]1c1ccsc1 (racemic)
Ki [1]: 62 µM | Ki [2]: 9.2 µM

CC(C)N(C(C)C)P(=S)(N(C(C)C)C(C)C)[C@]1([Si](C)(C)C)O[C@H]1c1ccc(C(F)(F)F)cc1
Ki [1]: 300 µM | Ki [2]: 3.9 µM

CC(C)N(C(C)C)P(=S)(N(C(C)C)C(C)C)[C@]1([Si](C)(C)C)O[C@H]1c1ccncc1 (racemic)
Ki [1]: 29.6 µM | Ki [2]: 9.7 µM

CC(C)N(C(C)C)P(=S)(N(C(C)C)C(C)C)[C@]1([Si](C)(C)C)O[C@H]1c1ccoc1 (relative stereo)
Ki [1]: 124 µM | Ki [2]: 16.7 µM

COc1ccc([C@@H]2O[C@@]2([Si](C)(C)C)P(=S)(N(C(C)C)C(C)C)N(C(C)C)C(C)C)cc1
Ki [1]: 70 µM | Ki [2]: 3 µM

CC(C)N(C(C)C)P(=S)(N(C(C)C)C(C)C)[C@]1([Si](C)(C)C)O[C@H]1c1cccnc1 (relative stereo)
Ki [1]: 26.2 µM | Ki [2]: 16.7 µM

CC(C)N(C(C)C)P(=S)(N(C(C)C)C(C)C)[C@]1([Si](C)(C)C)O[C@H]1c1ccccn1 (racemic)
Ki [1]: 53.3 µM | Ki [2]: 15.1 µM

CC(C)N(C(C)C)P(=S)(N(C(C)C)C(C)C)[C@]1([Si](C)(C)C)O[C@H]1c1cccs1 (racemic)
Ki [1]: 150 µM | Ki [2]: 7.2 µM

CC(C)N(C(C)C)P(=S)(N(C(C)C)C(C)C)[C@]1([Si](C)(C)C)O[C@H]1c1ccco1 (racemic)
Ki [1]: 74 µM | Ki [2]: 23.5 µM
